Laboratory results published in patent US20030125234A1, “Alteration of protein stability” (priority 2001, published 2003).

Legend:
Format in all cases: biochemical
[1] = molecular target: T1, Bovine insulin (Bos taurus, UniProt P01317); assay: Insulin aggregation (turbidity at 360 nm) induced by DTT; conditions: Insulin 0.25 mg/mL, 25° C., DTT; compound 100×; standard deviation in parenthesis
T1 construct: purchased Sigma, St. Louis, Mo., USA
Experimental: (§1) Bovine insulin [Sigma, St. Louis, Mo., USA] was dissolved in phosphate saline (PBS) (50 mM sodium biphosphate, 100 mM sodium chloride), pH 7.0, bovine alpha-lactalbumin [Sigma] in 50 mM sodium phosphate, 100 mM sodium chloride and 2 mM EDTA, pH 6.2, chicken egg white lysozyme [Sigma] in 100 mM Tris, 1 mM EDTA, pH 8.2, human acidic fibroblast growth factor (FGF-1) in 6.2 mM sodium biphosphate, 120 mM sodium chloride, pH 7.2, porcine somatotropin (pST) [provided by Pfizer, Inc., Groton, Conn., USA] in 10 mM phosphate, pH 6. 1, human apolactoferrin (HLF) [Sigma] in 20 mM HEPES, 154 mM NaCl, pH 7.4, porcine heart citrate synthase (CS) in 40 mM HEPES, 50 mM KCl, 10 mM (NH4)2SO4 mM potassium acetate, pH 7.8, and yeast alcohol dehydrogenase (ADH) [Sigma] in pH 7.0 PBS. Selection of buffer solutions was based on an extensive series of preliminary studies to obtain appropriate insolubilization kinetics as described below.
(§2) Copper O-phenanthroline (1,10-phenanthroline) was prepared by mixing copper sulfate hexahydrate [Fisher] and o-phenanthroline [Sigma] in a 1:2 ratio. 1 M Dithiothreitol (DTT) was prepared at pH 7.0 PBS. Polyethylene glycol (M.W. 8000, Union Carbide, Danbury, Conn., USA) (PEG) was prepared at 20 mg/mL in 10 mM phosphate, pH 6.1.
(§3) The following compounds were obtained from Sigma and used without further purification: oxalic acid, sodium malonate, succinic acid, glutaric acid, adipic acid, pimelic acid, suberic acid, azelaic acid, guanidine hydrochloride, ammonium formate, beta-alanine, 4-aminobutyric acid, 5-aminovaleric acid, 6-aminocaproic acid, 7-aminoheptanoic acid, hydrazine, ethylenediamine, 1,3-diaminopropane, 1,4-diaminobutane, 1,5-diaminopentane, 1,6-diaminohexane, 1,7-diaminoheptane, Glu-Glu, Glu-Lys, Lys-Lys, diglycine, triglycine, tetraglycine, pentaglycine, and hexaglycine. […] Triglycine and tetraglycine were dissolved in pH 8.6 PBS, while pentaglycine and hexaglycine were dissolved in pH 10.6 PBS.
(§4) Each was either dissolved in pH 7.0 PBS, or pH 6.1 10 mM phosphate, and adjusted to the same pH.
(§5) Protein aggregation was monitored for 1 hour at 360 nm using an HP8453 UV-visible spectrophotometer system [Hewlett Packard, Germany]. […] Insulin (0.25 mg/mL (4.39E-5 M)) aggregation was monitored at 25° C. after addition of potential inhibitors and 20 μL of 1 M DTT (1.27E-4 M). Alpha-lactabumin (0.4 mg/mL (2.82E-5 M)) aggregation was monitored at 37° C. in the presence of 20 μL of 1 M DTT (1.27E-4 M). Lysozyme (0.4 mg/mL (2.86E-5 M)) aggregation was monitored at 25° C. in the presence of 20 μL of 1 M DTT (1.27E-4 M). FGF-1 (50 μg/mL (3.12E-6 M)) aggregation was monitored at 50° C. Porcine somatotropin (1.27 mg/mL (5.76E-5 M)) aggregation was monitored at 60° C. in the presence of PEG 8000 (20 mg/mL) which was included to enhance the protein association process through a simple exclusion volume effect. HLF (0.4 mg/mL (5.23E-6 M)) aggregation was monitored at 43° C. in the presence of 1.27E-4 M DTT. Citrate synthase (96 μg/mL (9.80E-7 M)) aggregation was monitored at45° C. ADH (1 mg/mL (7.14E-6 M)) was monitored at 37° C. following the addition of 7.76E-5 M Cu(OP)2. Aggregation was compared to protein in the absence of the particular dipolar compound. After stirring, experiments were initiated by the addition of proteins followed by stressing reagents to 1 cm pathlength cuvettes employing a seven-position thermostatted sample holder that was cycled at 30-second intervals. Alternatively, a microtiter plate reader was employed under the same conditions in a 96 well format.
(§6) All optical density (OD)360nm versus time results were exported into Excel [Microsoft] for data analysis.

[2] = molecular target: human acidic fibroblast growth factor (FGF-1) (Homo sapiens, UniProt P05230); assay: FGF-1 thermal aggregation (turbidity at 360 nm); conditions: FGF-1 50 μg/mL, 50° C.; compound 1,000×; standard deviation in parenthesis
Experimental: as §1, §3, §4, §5
(§7) All optical density (OD)360nm versus time results were exported into Excel [Microsoft] for data analysis. […] The maximum rate of change in OD versus time plots (r) was used to determine the rate of the reaction from the slope at this point.

[3] = molecular target: T2, yeast alcohol dehydrogenase (ADH) (Saccharomyces cerevisiae, UniProt P00330); assay: ADH oxidation-induced aggregation (turbidity at 360 nm), Cu(OP)2; conditions: ADH 1 mg/mL, 37° C., Cu(OP)2
T2 construct: purchased Sigma
T2 sequence (P00330 2-348 limits assumed): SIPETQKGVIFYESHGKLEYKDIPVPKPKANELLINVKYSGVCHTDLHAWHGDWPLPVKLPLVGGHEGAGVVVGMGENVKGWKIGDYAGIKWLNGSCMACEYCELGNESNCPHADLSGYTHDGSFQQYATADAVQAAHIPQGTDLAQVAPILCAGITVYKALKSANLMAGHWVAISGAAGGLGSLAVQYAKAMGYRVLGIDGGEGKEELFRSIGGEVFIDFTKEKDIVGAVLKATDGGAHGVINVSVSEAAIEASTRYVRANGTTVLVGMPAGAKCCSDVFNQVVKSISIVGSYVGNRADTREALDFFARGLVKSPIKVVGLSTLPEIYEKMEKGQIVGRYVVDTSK
Experimental: as §1, §2, §3, §4, §5, §6

[4] = molecular target: T3, chicken egg white lysozyme (Gallus gallus, UniProt P00698); assay: Lysozyme aggregation (turbidity at 360 nm) induced by DTT; conditions: Lysozyme 0.4 mg/mL, 25° C., DTT; compound 1,000×; standard deviation in parenthesis
T3 construct: chicken egg white lysozyme [Sigma]; purchased Sigma; host or cells: egg white
Experimental: as §1, §2, §3, §4, §5, §6

[5] = molecular target: T4, human apolactoferrin (HLF) (Homo sapiens, UniProt P02788); assay: HLF aggregation (turbidity at 360 nm) induced by DTT; conditions: HLF 0.4 mg/mL, 43° C., DTT; first HLF column, head 10,000×; standard deviation in parenthesis
T4 construct: purchased Sigma
Experimental: as §1, §2, §3, §4, §5, §6

[6] = molecular target: T5, porcine heart citrate synthase (CS) (Sus scrofa, UniProt P00889); assay: Citrate synthase thermal aggregation (turbidity at 360 nm); conditions: CS 96 μg/mL, 45° C.; compound 1,000X; standard deviation in parenthesis
T5 construct: porcine heart citrate synthase (CS); from tissue; host or cells: porcine heart
T5 sequence (P00889 28-464): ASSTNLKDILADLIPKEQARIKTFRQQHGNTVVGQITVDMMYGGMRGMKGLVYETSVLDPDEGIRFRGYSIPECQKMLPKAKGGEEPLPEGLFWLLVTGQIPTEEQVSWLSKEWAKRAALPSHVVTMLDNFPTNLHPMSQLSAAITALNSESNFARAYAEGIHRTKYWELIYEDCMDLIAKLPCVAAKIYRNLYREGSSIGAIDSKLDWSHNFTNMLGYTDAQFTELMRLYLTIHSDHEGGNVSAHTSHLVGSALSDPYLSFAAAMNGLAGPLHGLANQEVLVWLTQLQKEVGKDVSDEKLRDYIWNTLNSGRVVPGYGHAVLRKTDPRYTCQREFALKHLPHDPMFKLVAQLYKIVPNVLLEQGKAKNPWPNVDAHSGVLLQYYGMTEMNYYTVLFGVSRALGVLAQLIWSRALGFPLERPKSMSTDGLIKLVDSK
Experimental: as §1, §3, §4, §5, §7

[7] = molecular target: T6, bovine alpha-lactalbumin (Bos taurus, UniProt P00711); assay: Alpha-lactalbumin aggregation (turbidity at 360 nm) induced by DTT; conditions: for inhibition index: α Lactalbumin 0.4 mg/mL, 37° C., DTT, compound 1,000×, standard deviation in parenthesis
T6 construct: purchased Sigma
T6 sequence (P00711 20-142): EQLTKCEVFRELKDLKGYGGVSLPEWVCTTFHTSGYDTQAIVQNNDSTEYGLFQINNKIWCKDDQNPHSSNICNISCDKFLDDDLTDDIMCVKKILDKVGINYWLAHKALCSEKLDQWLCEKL
Experimental: as §1, §2, §3, §4, §5, §6

[8] = molecular target: T7, porcine somatotropin (pST) (Sus scrofa, UniProt P01248); assay: Porcine somatotropin aggregation (turbidity at 360 nm) with PEG 8000; conditions: pST 1.27 mg/mL, 60° C., compound 100X, standard deviation in parenthesis
T7 construct: purchased Pfizer, Inc., Groton, Conn., USA (provided, not bought)
T7 sequence (P01248 27-216): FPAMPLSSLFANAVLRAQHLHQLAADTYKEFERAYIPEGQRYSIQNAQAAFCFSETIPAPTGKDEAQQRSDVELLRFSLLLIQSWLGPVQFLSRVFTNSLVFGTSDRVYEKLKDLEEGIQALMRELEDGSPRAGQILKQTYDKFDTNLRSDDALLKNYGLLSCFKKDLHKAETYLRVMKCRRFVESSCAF
Experimental: as §1, §2, §3, §4, §5, §6

[9] = compound 1,000X, standard deviation in parenthesis

T3 sequence (P00698 19-147): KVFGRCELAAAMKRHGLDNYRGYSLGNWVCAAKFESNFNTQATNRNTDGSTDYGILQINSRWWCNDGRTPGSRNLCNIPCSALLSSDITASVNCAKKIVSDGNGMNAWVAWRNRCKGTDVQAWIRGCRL
T1 sequence (P01317 25-54 limits assumed): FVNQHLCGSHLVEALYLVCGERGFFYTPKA
T1 sequence (P01317 85-105 limits assumed): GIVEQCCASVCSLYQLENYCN
T4 sequence (P02788 20-710): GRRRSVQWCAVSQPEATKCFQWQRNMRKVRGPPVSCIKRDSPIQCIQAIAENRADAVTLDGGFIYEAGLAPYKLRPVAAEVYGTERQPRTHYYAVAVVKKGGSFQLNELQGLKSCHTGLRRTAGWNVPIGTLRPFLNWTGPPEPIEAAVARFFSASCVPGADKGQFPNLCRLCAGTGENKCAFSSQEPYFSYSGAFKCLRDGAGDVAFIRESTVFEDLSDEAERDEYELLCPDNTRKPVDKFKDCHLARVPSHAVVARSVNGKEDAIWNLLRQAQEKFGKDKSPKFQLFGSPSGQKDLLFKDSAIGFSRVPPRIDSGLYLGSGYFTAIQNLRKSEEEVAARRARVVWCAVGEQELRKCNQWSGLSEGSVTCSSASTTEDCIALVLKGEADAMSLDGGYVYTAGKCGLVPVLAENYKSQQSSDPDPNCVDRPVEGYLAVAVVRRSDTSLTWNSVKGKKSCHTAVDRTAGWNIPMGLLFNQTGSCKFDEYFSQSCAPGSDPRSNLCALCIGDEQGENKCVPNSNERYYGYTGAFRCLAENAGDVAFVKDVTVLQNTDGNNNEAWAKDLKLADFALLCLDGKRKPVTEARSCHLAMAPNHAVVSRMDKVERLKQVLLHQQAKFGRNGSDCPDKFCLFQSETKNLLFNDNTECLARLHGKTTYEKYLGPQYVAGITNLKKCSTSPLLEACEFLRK
human acidic fibroblast growth factor (FGF-1), sequence (P05230 whole entry): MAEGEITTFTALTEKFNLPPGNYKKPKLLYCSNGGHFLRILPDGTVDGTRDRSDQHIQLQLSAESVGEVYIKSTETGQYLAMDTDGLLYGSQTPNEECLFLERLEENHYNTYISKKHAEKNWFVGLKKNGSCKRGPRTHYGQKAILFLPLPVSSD

Row | Substance | inhibition index [1] | inhibition index [2] | inhibition index [3, 9] | inhibition index [4] | inhibition index [5] | inhibition index [6] | inhibition index [7] | inhibition index [8] | inhibition of α-lactalbumin aggregation, in words [7] | inhibition index ([3]; compound 10,000X molar excess, Infinite = complete inhibition of aggregation over one hour)
1 | CH3—NH2-(Glu)^−-(Gly)n-(Glu)^−-COO^− [CH3—NH2—(E)^−—(G)1—(E)^−—COO^−] | 0.5 (0.2) | 1.9 (0.1) | 1.6 (0.1) | 0.9 (0.1) | 1.6 (0.1) | 0.8 (0.1) | 0.2 (0.1) | 1.0 (0.1) |  | 
2 | CH3—NH2-(Glu)^−-(Gly)n-(Glu)^−-COO^− [CH3—NH2—(E)^−—(G)3—(E)^−—COO^−] | 1.3 (0.4) | 2.0 (0.3) | 1.3 (0.1) | 0.9 (0.2) | 1.5 (0.3) | 1.0 (0.2) | 0.5 (0.3) | 1.2 (0.2) |  | 
3 | KGGGGGE [^+NH3-(Lys)^+-(Gly)n-(Glu)^−-COO^−, n = 5] | 1.3 (0.3) | 1.4 (0.3) | 1.4 (0.2) | 1.5 (0.4) | 0.8 (0.1) | 2.0 (0.2) | 1.8 (0.2) | 0.5 (0.1) |  | 
4 | ^+NH3-(Lys)^+-(Gly)n-(Glu)^−-COO^− [KGE] | 0.6 (0.3) | 1.7 (0.4) | 1.3 (0.1) | 2.8 (0.8) | 0.9 (0.1) | 1.2 (0.2) | 0.3 (0.2) | 0.7 (0.0) |  | 
5 | ^+NH3-(Lys)^+-(Gly)n-(Glu)^−-COO^− [KGGE] | 1.0 (0.3) | 1.2 (0.2) | 0.8 (0.1) | 2.6 (0.4) | 0.7 (0.1) | 1.4 (0.4) | 0.5 (0.2) | 0.6 (0.1) |  | 
6 | ^+NH3-(Lys)^+-(Gly)n-(Glu)^−-COO^− [KGGGE] | 0.8 (0.1) | 1.9 (0.2) | 1.2 (0.1) | 3.4 (0.1) | 0.8 (0.1) | 1.5 (0.1) | 0.6 (0.1) | 0.6 (0.1) |  | 
7 | ^+NH3-(Lys)^+-(Gly)n-(Glu)^−-COO^− [KGGGGE] | 1.0 (0.1) | 1.9 (0.4) | 1.4 (0.1) | 1.9 (0.5) | 0.8 (0.1) | 1.8 (0.2) | 0.5 (0.1) | 0.6 (0.1) |  | 
8 | ^+NH3-(Lys)^+-(Gly)n-(Lys)^+-CONH2 [^+NH3—(K)^+—(G)2—(K)^+—CONH2] | 1.8 (0.1) | 1.8 (0.3) | 0.8 (0.1) | 0.4 (0.1) | 1.3 (0.1) | 0.7 (0.2) | 3.3 (0.9) | 1.2 (0.2) |  | 
9 | ^+NH3-(Lys)^+-(Gly)n-(Lys)^+-CONH2 [^+NH3—(K)^+—(G)4—(K)^+—CONH2] | 1.6 (0.3) | 2.0 (1.0) | 1.5 (0.3) | 1.4 (0.5) | 1.9 (0.2) | 0.8 (0.2) | 1.4 (0.3) | 0.9 (0.0) |  | 
10 | ^+NH3-(Lys)^+-(Gly)n-(Lys)^+-CONH2 [^+NH3—(K)^+—(G)5—(K)^+—CONH2] | 1.7 (1.0) | 3.3 (0.8) | 1.5 (0.2) | 0.8 (0.4) | 1.5 (0.3) | 0.8 (0.1) | 2.6 (1.1) |  | Potent inhibitors | 
11 | hexaglycine | 1.5 (0.7) |  | 1.7 (0.5) | 0.0 (0.0) | 1.7 (1.5) | 0.5 (0.1) | 4.2 (1.1) | 0.7 (0.1) | Potent inhibitors | 20.3
